Laboratory results taken from patent publication US4758565A, “Substituted pyrimidoquinoxalines useful as anti-anaerobic agents” (G. D. Searle & Co., priority 1986, dated 1988).
≈ marks a conversion by molar mass, not a printed value.

Experiments:
[1] = system: Campylobacter fetus ss. jejuni ATCC 29428; assay: MIC vs panel of anaerobes; format: cell-based; conditions: ATCC29428, procedures of Example 11 (mg/L)
B. fragilis WS-1 = assay: Screening panel of Bacteroides fragilis, MIC and MBC, strain E; format: cell-based; conditions: WS1, 48 h; for MIC: 48 hours at 37° C., anaerobic, read-out: Minimum Inhibitory Concentration (MIC); for MBC: less than 5 colonies (99.9% reduction) after 48 hours, read-out: Minimum Bactericidal Concentration (MBC)
Procedure: (§1) The screening panel utilized in this example consisted of 5 strains of Bacteroides fragilis. All assays were carried out in 96-well microtitre plates. If an isolate was obtained from either a culture collection or clinical source, the isolate was immediately inoculated into Wilkins-Chalgren broth (Oxoid) and incubated at 37° C. in an anaerobic chamber in an atmosphere of 85% nitrogen, 10% carbon dioxide, and 5% hydrogen for 48 hours. At the end of this time, the viable count was about […] broth. A 1 ml aliquot of each culture was placed in an ampoule and quick frozen in acetone-dry ice mixture and stored in liquid nitrogen. […] A 2 mg sample of the test compound was dissolved in 0.2 ml of a suitable solvent such as dimethylsulfoxide, polyethylene glycol 200 or methanol. […] After addition of the test solution the final inoculum level was 10^5 cells/ml. The plates were incubated for 48 hours at 37° C. in the anaerobic chamber. The Minimum Inhibitory Concentration (MIC) was read visually. The MIC is defined as the lowest concentration at which there is no detectable growth. The Minimum Bactericidal Concentration (MBC) was determined by taking 50 μ l aliquot from each well and placing it in fresh medium. […] The strains of Bacteroides fragilis utilized in the above procedure are identified by letter in accordance with the following legend: |E B. fragilis WS-1* | *Obtained from St. Thomas's Hospital Medical School, London, United | Kingdom.

[2] = system: Clostridium perfringens NCTC 523; assay: microbe, parasite or virus in culture; format: cell-based; conditions: NCTC523
[3] = system: Bacteroides melanogenicus NCTC 9336; assay: MIC vs panel of anaerobes; format: cell-based; conditions: NCTC9336, procedures of Example 11 (mg/L)
[4] = system: Clostridium difficile NCIB 10666; assay: MIC vs panel of anaerobes; format: cell-based; conditions: Clostridioides difficile, NCIB10666, procedures of Example 11 (mg/L)
B. fragilis NCTC 9344 = assay: Screening panel of Bacteroides fragilis, MIC and MBC, strain C; format: cell-based; conditions: for MBC / MIC: Bacteroides fragilis; for MBC: NCTC9344, 48 h, read-out: Minimum Bactericidal Concentration (MBC); for MIC: NCTC9344, 48 hours at 37° C., anaerobic, read-out: Minimum Inhibitory Concentration (MIC)
Procedure: as §1, with “|C” for “|E”, “NCTC 9344” for “WS-1* | *Obtained from St. Thomas's Hospital Medical School, London, United | Kingdom.”

[5] = system: Campylobacter fetus ss. jejuni NCTC 10842; assay: MIC vs panel of anaerobes; format: cell-based; conditions: NCTC10842, procedures of Example 11 (mg/L)
[6] = system: Propionebacterium acnes NCTC 7337; assay: MIC vs panel of anaerobes; format: cell-based; conditions: procedures of Example 11 (mg/L)
B. fragilis NCTC 9353 = assay: Screening panel of Bacteroides fragilis, MIC and MBC, strain B; format: cell-based; conditions: for MIC / MBC: Bacteroides fragilis, NCTC9353, 48 h; for MIC: read-out: Minimum Inhibitory Concentration (MIC); for MBC: read-out: Minimum Bactericidal Concentration (MBC)
Procedure: as §1, with “|B” for “|E”, “NCTC 9353” for “WS-1* | *Obtained from St. Thomas's Hospital Medical School, London, United | Kingdom.”

[7] = system: B. fragilis MZ-R ATCC 11295; assay: Screening panel of Bacteroides fragilis, MIC and MBC, strain D; format: cell-based; conditions: ATCC11295, 48 h; for MIC: 48 hours at 37° C., anaerobic, read-out: Minimum Inhibitory Concentration (MIC); for MBC: less than 5 colonies (99.9% reduction) after 48 hours, read-out: Minimum Bactericidal Concentration (MBC)
[8] = system: Peptostreptococcus anaerobius; assay: MIC vs panel of anaerobes; format: cell-based; conditions: procedures of Example 11 (mg/L)
[9] = system: Fusobacterium necrophorum ATCC 11295; assay: MIC vs panel of anaerobes; format: cell-based; conditions: ATCC11295, procedures of Example 11 (mg/L)
Peptococcus magnus = assay: MIC vs panel of anaerobes; format: cell-based; conditions: Finegoldia magna, procedures of Example 11 (mg/L)
[10] = system: Fusobacterium necrophorum ATCC 25286; assay: MIC vs panel of anaerobes; format: cell-based; conditions: ATCC25286, procedures of Example 11 (mg/L)
B. fragilis NCTC 10581 = assay: Screening panel of Bacteroides fragilis, MIC and MBC, strain A; format: cell-based; conditions: for MIC: NCTC10581, 48 hours at 37° C., anaerobic, read-out: Minimum Inhibitory Concentration (MIC); for MBC: NCTC10581, less than 5 colonies (99.9% reduction) after 48 hours, read-out: Minimum Bactericidal Concentration (MBC)
Procedure: as §1, with “|A” for “|E”, “NCTC 10581” for “WS-1* | *Obtained from St. Thomas's Hospital Medical School, London, United | Kingdom.”

B. fragilis 23745 = assay: In vivo anti-anaerobe activity, mouse hepatic necrosis; conditions: 40 mg/kg (p.o)
[11] = less than 5 colonies (99.9% reduction) after 48 hours

Structure (SMILES)	MIC [1] [µg/mL]	MIC (B. fragilis WS-1) [µg/mL]	MBC (B. fragilis WS-1) [µg/mL]	MIC [2] [µg/mL]	MIC [3] [µg/mL]	MIC [4] [µg/mL]	MBC (B. fragilis NCTC 9344; [11]) [µg/mL]	MIC (B. fragilis NCTC 9344) [µg/mL]	MIC [5] [µg/mL]	MIC [6] [µg/mL]	MIC (B. fragilis NCTC 9353; 48 hours at 37° C., anaerobic) [µg/mL]	MBC (B. fragilis NCTC 9353; [11]) [µg/mL]	MIC [7] [µg/mL]	MBC [7] [µg/mL]	MIC [8] [µg/mL]	MIC [9] [µg/mL]	MIC (B. fragilis NCTC 10581) [µg/mL]	MBC (B. fragilis NCTC 10581) [µg/mL]	further results
CC1(C)CN=C2C(c3ccccc3)=[N+]([O-])c3ccc(F)cc3N2C1 [Example 2, 2,3-Dihydro-2,2-dimethyl-9-fluoro-5-phenyl-1H-pyrimido [1,2-a]quinoxaline 6-oxide]	25 (≈ 77.3 µM)	< 0.8	< 0.8	3.1 (≈ 9.59 µM)	50 (≈ 155 µM)	3.1 (≈ 9.59 µM)	1.5 (≈ 4.64 µM)	< 0.8	50 (≈ 155 µM)	50 (≈ 155 µM)	< 0.8	< 0.8	< 0.8	< 0.8	1.5 (≈ 4.64 µM)	3.1 (≈ 9.59 µM)	–	–	MIC (Peptococcus magnus): < 0.8 µg/mL; MIC [10]: < 0.8 µg/mL
CC1(C)CN=C2C(c3ccccc3)=[N+]([O-])c3cc(C(F)(F)F)ccc3N2C1 [Example 1, 2,3-Dihydro-2,2-dimethyl-5-phenyl-8-trifluoromethyl-1H-pyrimido[1,2-a]quinoxaline 6-oxide]	100 (≈ 268 µM)	1.5 (≈ 4.02 µM)	1.5 (≈ 4.02 µM)	1.5 (≈ 4.02 µM)	> 100	< 0.8	3.1 (≈ 8.3 µM)	1.5 (≈ 4.02 µM)	> 100	100 (≈ 268 µM)	1.5 (≈ 4.02 µM)	1.5 (≈ 4.02 µM)	0.8 (≈ 2.14 µM)	0.8 (≈ 2.14 µM)	100 (≈ 268 µM)	1.5 (≈ 4.02 µM)	3.1 (≈ 8.3 µM)	3.1 (≈ 8.3 µM)	–
CC1(C)CN=C2C(c3ccccc3)=[N+]([O-])c3cccc(F)c3N2C1 [Example 5, 2,3-Dihydro-2,2-dimethyl-10-fluoeo-5-phenyl-1H-pyrimido [1,2-a]quinoxaline 6-oxide]	–	< 0.8	< 0.8	–	–	–	< 0.8	< 0.8	–	–	< 0.8	< 0.8	< 0.8	< 0.8	–	–	< 0.8	1.5 (≈ 4.64 µM)	–
Cc1ncc([N+](=O)[O-])n1CCO [Metronidazole, reference compound]	–	–	–	–	–	–	1.5 (≈ 8.76 µM)	< 0.8	–	–	< 0.8	< 0.8	–	–	–	–	< 0.8	< 0.8	Minimum Bactericidal Concentration (MBC) (B. fragilis NCTC 9344; [11]): < 0.8 µg/mL; Minimum Inhibitory Concentration (MIC) (B. fragilis NCTC 9353; 48 hours at 37° C., anaerobic): 1.5 µg/mL; Minimum Bactericidal Concentration (MBC) (B. fragilis NCTC 9353; [11]): 1.5 µg/mL; reduction in B. fragilis (B. fragilis 23745): 3-3.5 log10
CCC1(C)CN=C2C(c3ccc(C)cc3)=[N+]([O-])c3cc(C(F)(F)F)ccc3N2C1 (stereo not drawn) [Example 6, 2,3-Dihydro-2-ethyl-2-methyl-5-(4-methylphenyl)-8-trifluoromethyl-1H-pyrimdo [1,2-a]quinoxaline 6-oxide]	–	3.1 (≈ 7.72 µM)	3.1 (≈ 7.72 µM)	–	–	–	3.1 (≈ 7.72 µM)	3.1 (≈ 7.72 µM)	–	–	6.2 (≈ 15.4 µM)	6.2 (≈ 15.4 µM)	1.5 (≈ 3.74 µM)	3.1 (≈ 7.72 µM)	–	–	6.2 (≈ 15.4 µM)	6.2 (≈ 15.4 µM)	–
Cc1ccc(C2=[N+]([O-])c3cc(C(F)(F)F)ccc3N3CC(C)(C)CN=C23)cc1 [Example 3, 2,3-Dihydro-2,2-dimethyl-5-(4-methylphenyl)-8-trifluoromethyl-1H-pyrimid [1,2-a]quinoxaline 6-oxide]	> 100	< 0.8	1.5 (≈ 3.87 µM)	< 0.8	> 100	< 0.8	3.1 (≈ 8 µM)	3.1 (≈ 8 µM)	12.5 (≈ 32.3 µM)	> 100	1.5 (≈ 3.87 µM)	1.5 (≈ 3.87 µM)	1.5 (≈ 3.87 µM)	6.2 (≈ 16 µM)	> 100	6.2 (≈ 16 µM)	< 0.8	< 0.8	MIC (Peptococcus magnus): > 100 µg/mL; MIC [10]: < 0.8 µg/mL
CCC1(C)CN=C2C(c3ccccc3)=[N+]([O-])c3cc(C(F)(F)F)ccc3N2C1 (stereo not drawn) [Example 4, 2,3-Dihydro-2-ethyl-2-methyl-5-phenyl-8-trifluoromethyl-1H-pyrimido [1,2-a]quinoxaline 6-oxide]	–	< 0.8	< 0.8	–	–	–	< 0.8	< 0.8	–	–	< 0.8	< 0.8	< 0.8	< 0.8	–	–	< 0.8	1.5 (≈ 3.87 µM)	–
